The subject of this experiment is Ba/F3 LMNA-NTRK1-G667C cells. Kind of experiment: Proliferation of Ba/F3 LMNA-NTRK1-G667C cells (CellTiter-Glo). Type of experiment: cell-based, mouse. An excerpt:
Ba/F3 LMNA-NTRK1-G667C is a stable transgenic cell line constructed by KYinno Biotechnology Co., Ltd. on mouse primary B cell Ba/F3 wherein NTRK1 has a mutation of G to Cat position 667 and is highly expressed and fused with LMNA to form LMNA-NTRK1-G667C. • [Test method]: Promega's CellTiter-Glo® Luminescent Cell Viability Assay kit was used to evaluate the inhibitory activity of the compounds on the proliferation of Ba/F3 LMNA-NTRK1-G667C cells. • [Instrument]: Spectramax M3 multifunctional microplate reader from Molecular Devices. • [Test materials]: Ba/F3 LMNA-NTRK1-G667C cell line (constructed by KYinno Co., Ltd. (Beijing)), 96-well transparent flat-bottomed black-walled cell culture plate (Corning, cat #3603), RPMI-1640 media (GE, cat #SH30027.01), fetal bovine serum FBS (Thermo Fisher, cat #10099-141), CellTiter-Glo® Luminescent Cell Viability Assay kit (Promega, cat #G7572), PBS (Solarbio, cat #P1020), DMSO (Sigma, cat #D2650). • [Experimental procedure]: When resuscitating Ba/F3 LMNA-NTRK1-G667C cells, the freezing tube was quickly shaken in a 37° C. water bath to melt within 1 minute. The thawed cell suspension was mixed uniformly with RPMI1640 medium containing 10% FBS, centrifuged at 1000 rpm for 5 minutes, and the supernatant discarded. 5 mL of complete medium (RPMI1640 medium with 10% FBS) was taken to resuspend the cell pellets, charged into a cell culture flask with a bottom area of 25 cm^2, and incubated in a cell incubator at 37° C., 95% humidity and 5% CO2. Cells were allowed to passage when the number of cells reached about 10^6 cells/mL. For cell passage, the old cell suspension was directly pipetted evenly, 1/5 of the cell suspension was kept, 4 mL of new complete medium was added, after pipetting evenly, the cell flask was placed in the cell incubator for further culturing. Cell plating was performed when the number of cells reached about 10^6 cells/mL again. For cell plating, 1/5 of the cell suspension was kept for further culturing as in the cell passage method, and the remaining 4/5 of the cell suspension was placed in a 15 mL centrifuge tube, detected for cell viability by Trypan blue exclusion method to ensure that cell viability was above 90%. A cell suspension with a density of 5.56×10^4 viable cells/mL was prepared with complete medium, and 90 μL of such cell suspension was added to a 96-well cell culture plate to obtain the cell density of 5000 viable cells/mL in the cell culture plate. A control group containing no cells, no compound and only complete medium (i.e. culture medium control) and a control group containing no compound but containing cells (i.e. cell control) were set. The cell plate was placed in a cell incubator overnight. The 10 mM compound stock solution in DMSO was first serially diluted with DMSO at a dilution factor of 3.16 times, to obtain 9 concentrations, and the 10th concentration was set as DMSO control without compound. Then, PBS was used to dilute the DMSO solutions of compounds of different concentrations, at a dilution factor of 100 times, so that the DMSO concentration in the compound solution of each concentration was 1%. Finally, 10 μL of each of the above solutions was added to the corresponding cell culture plate, so that the initial compound concentration was 10 μM, with the remaining concentrations being successively diluted at a dilution factor of 3.16 times, and the DMSO content in the cell culture plate was 0.1%. The cell plate was placed in a cell incubator and cultured for 72 hours. For endpoint detection, the CellTiter-Glo reagent was melted, and the cell plate was moved to room temperature to equilibrate for 30 minutes, added with 100 μL of CellTiter-Glo for each well, and shaken on an orbital shaker for 5 minutes to fully lyse the cells. The plate was kept at room temperature for 20 minutes to stabilize the luminescence signal, and the luminescence value of each well was scanned with a multi-functional microplate reader at full wavelength. • [Test samples] […]
Background: Cellular ATP, detected with luciferase, serves as a proxy for viable cell number.

Where [1] appears, read: Mus musculus, BaF3, 72 h, Table 4, 72 hours, read-out: Ba/F3 LMNA-NTRK1-G667C, IC50.
Where [2] appears, read: Mus musculus, BaF3, Table 4-2, separate test, read-out: Ba/F3 LMNA-NTRK1-G667C, IC50.
Where [3] appears, read: Mus musculus, BaF3, Table 4-1, separate test, read-out: Ba/F3 LMNA-NTRK1-G667C, IC50.
[4] abbreviates: Mus musculus, BaF3, Table 9, read-out: Ba/F3 LMNA-NTRK1-G667C cell proliferation inhibitory activity (IC50).

The structures appear in SMILES notation. Like-named read-outs stand apart in the source and are kept apart here.

This is an account of results in patent publication US11952364B2, “TRK inhibitors useful as anticancer drugs” (TYLIGAND BIOSCIENCE (SHANGHAI) LIMITED, priority 2018, dated 2024).

Regarding `Cn1ncc2cc(Oc3ccc(NC(=O)c4ccc(C(F)(F)F)n(-c5ccc(F)cc5)c4=O)cc3F)c(-c3cn[nH]c3)cc21` [Example 1, N-(3-fluoro-4-(1-methyl-6-(1H-pyrazol-4-yl)-1H-indazol-5-yloxy)phenyl)-1-(4-fluorophenyl)-6-trifluoromethyl-2-oxo-1,2-dihydmpyridine-3-carboxamide monomethanesulfonate], the IC50 under setting [1] worked out at 2 nM.

In the case of `Cn1ncc2cc(Oc3ccc(NC(=O)c4ccc(C5CC5)n(-c5ccc(F)cc5)c4=O)cc3F)c(-c3cn[nH]c3)cc21` [Example 2, N-(3-fluoro-4-(1-methyl-6-(1H-pyrazol-4-yl)-1H-indazol-5-yloxy)phenyl)-1-(4-fluorophenyl)-6-cyclopropyl-2-oxo-1,2-dihydmpyridine-3-carboxamide], the IC50 under setting [1] came to 1.1 nM.

Consider `CCn1ncc2cc(Oc3ccc(NC(=O)c4ccc(C)n(-c5ccc(F)cc5)c4=O)cc3F)c(-c3cn[nH]c3)cc21` [Example 3, N-(3-fluoro-4-(1-ethyl-6-(1H-pyrazol-4-yl)-1H-indazol-5-yloxy)phenyl)-1-(4-fluorophenyl)-6-methyl-2-oxo-1,2-dihydmpyridine-3-carboxamide], for which, under setting [1], the IC50 is 1.6 nM.

`Cc1ccc(C(=O)Nc2ccc(Oc3cc4cnn(C(C)C)c4cc3-c3cn[nH]c3)c(F)c2)c(=O)n1-c1ccc(F)cc1` [Example 4, N-(3-fluoro-4-(1-isopropyl-6-(1H-pyrazol-4-yl)-1H-indazol-5-yloxy)phenyl)-1-(4-fluorophenyl)-6-methyl-2-oxo-1,2-dihydmpyridine-3-carboxamide]: the IC50 under setting [1] is 2.8 nM.

On to `CCc1ccc(C(=O)Nc2ccc(Oc3cc4cnn(C)c4cc3-c3cn[nH]c3)c(F)c2)c(=O)n1-c1ccc(F)cc1` [Example 5, N-(3-fluoro-4-(1-methyl-6-(1H-pyrazol-4-yl)-1H-indazol-5-yloxy)phenyl)-1-(4-fluorophenyl)-6-ethyl-2-oxo-1,2-dihydropyridine-3-carboxamide], for which, under setting [1], the IC50 is under 1 nM.

With `CC(C)c1ccc(C(=O)Nc2ccc(Oc3cc4cnn(C)c4cc3-c3cn[nH]c3)c(F)c2)c(=O)n1-c1ccc(F)cc1` [Example 6, N-(3-fluoro-4-(1-methyl-6-(1H-pyrazol-4-yl)-1H-indazol-5-yloxy)phenyl)-1-(4-fluorophenyl)-6-isopropyl-2-oxo-1,2-dihydropyridine-3-carboxamide], the IC50 under setting [1] worked out at 0.66 nM.

`CSc1ccc(C(=O)Nc2ccc(Oc3cc4cnn(C)c4cc3-c3cn[nH]c3)c(F)c2)c(=O)n1-c1ccc(F)cc1` [Example 11, N-(3-fluoro-4-(1-methyl-6-(1H-pyrazol-4-yl)-1H-indazol-5-yloxy)phenyl)-1-(4-fluorophenyl)-6-methylthio-2-oxo-1,2-dihydropyidine-3-carboxamide]: the IC50 under setting [2] was determined as 10.5 nM.

In the case of `COc1ccc(C(=O)Nc2ccc(Oc3cc4cnn(C)c4cc3-c3cn[nH]c3)c(F)c2)c(=O)n1-c1ccc(F)cc1` [Example 12, N-(3-fluoro-4-(1-methyl-6-(1H-pyrazol-4-yl)-1H-indazol-5-yloxy)phenyl)-1-(4-fluorophenyl)-6-methoxy-2-oxo-1,2-dihydropyridine-3-carboxamide], the IC50 under setting [3] was under 1 nM.

As for `CCOc1ccc(C(=O)Nc2ccc(Oc3cc4cnn(C)c4cc3-c3cn[nH]c3)c(F)c2)c(=O)n1-c1ccc(F)cc1` [Example 14, N-(3-fluoro-4-(1-methyl-6-(1H-pyrazol-4-yl)-1H-indazol-5-yloxy)phenyl)-1-(4-fluorophenyl)-6-ethoxy-2-oxo-12-dihydropyridine-3-carboxamide], the IC50 under setting [2] turned out to be 8.6 nM.

For `Cn1ncc2cc(Oc3ccc(NC(=O)c4ccc(OC5CC5)n(-c5ccc(F)cc5)c4=O)cc3F)c(-c3cn[nH]c3)cc21` [Example 15, N-(3-fluoro-4-(1-methyl-6-(1H-pyrazol-4-yl)-1H-indazol-5-yloxy)phenyl)-1-(4-fluorophenyl)-6-cyclopropoxy-2-oxo-1,2-dihydropyridine-3-carboxamide], under setting [2], the IC50 amounted to 10.8 nM.

As for `CC(C)Oc1ccc(C(=O)Nc2ccc(Oc3cc4cnn(C)c4cc3-c3cn[nH]c3)c(F)c2)c(=O)n1-c1ccc(F)cc1` [Example 16, N-(3-fluoro-4-(1-methyl-6-(1H-pyrazol-4-yl)-1H-indazol-5-yloxy)phenyl)-1-(4-fluorophenyl)-6-isopropoxy-2-oxo-1,2-dihydropyridine-3-carboxamide], the IC50 under setting [2] came to 10.7 nM.

As for `CCc1ccc(C(=O)Nc2ccc(Oc3cc4cnn(CC)c4cc3-c3cn[nH]c3)c(F)c2)c(=O)n1-c1ccc(F)cc1` [Example 18, N-(3-fluoro-4-(1-ethyl-6-(1H-pyrazol-4-yl)-1H-indazol-5-yloxy)phenyl)-1-(4-fluorophenyl)-6-ethyl-2-oxo-1,2-dihydropyridine-3-carboxamide], under setting [3], the IC50 stood at 1 nM.

On to `CCn1ncc2cc(Oc3ccc(NC(=O)c4ccc(C5CC5)n(-c5ccc(F)cc5)c4=O)cc3F)c(-c3cn[nH]c3)cc21` [Example 19, N-(3-fluoro-4-(1-ethyl-6-(1H-pyrazol-4-yl)-1H-indazol-5-yloxy)phenyl)-1-(4-fluorophenyl)-6-cyclopropyl-2-oxo-1,2-dihydropyridine-3-carboxamide], for which the IC50 under setting [3] came to 2 nM.

With `CCn1ncc2cc(Oc3ccc(NC(=O)c4ccc(OC)n(-c5ccc(F)cc5)c4=O)cc3F)c(-c3cn[nH]c3)cc21` [Example 23, N-(3-fluoro-4-(1-ethyl-6-(1H-pyrazol-4-yl)-1H-indazol-5-yloxy)phenyl)-1-(4-fluorophenyl)-6-methoxy-2-oxo-1,2-dihydropyridine-3-carboxamide], the IC50 under setting [3] was found to be 1 nM.

Consider `CCOc1ccc(C(=O)Nc2ccc(Oc3cc4cnn(CC)c4cc3-c3cn[nH]c3)c(F)c2)c(=O)n1-c1ccc(F)cc1` [Example 24, N-(3-fluoro-4-(1-ethyl-6-(1H-pyrazol-4-yl)-1H-indazol-5-yloxy)phenyl)-1-(4-fluorophenyl)-6-ethoxy-2-oxo-12-dihydropyridine-3-carboxamide], for which, for the setting “Table 4-2, separate test, read-out: Ba/F3 LMNA-NTRK1-G667C, IC50”, the IC50 was 17.3 nM.

In the case of `CCn1ncc2cc(Oc3ccc(NC(=O)c4ccc(OC(C)C)n(-c5ccc(F)cc5)c4=O)cc3F)c(-c3cn[nH]c3)cc21` [Example 26, N-(3-fluoro-4-(1-ethyl-6-(1H-pyrazol-4-yl)-1H-indazol-5-yloxy)phenyl)-1-(4-fluorophenyl)-6-isopropoxy-2-oxo-1,2-dihydropyridine-3-carboxamide], the IC50 under setting [2] worked out at 17.5 nM.

As for `COc1ccc(C(=O)Nc2ccc(Oc3cc4cnn5c4c(c3-c3cn[nH]c3)CC5)c(F)c2)c(=O)n1-c1ccc(F)cc1` [Example 28, N-(4-((5-(1H-pyrazol-4-yl)-6,7-dihydropyrrolo[3,2,1-hi]-indazol-4-yl)oxy)-3-fluorophenyl)-1-(4-fluorophenyl)-6-methoxy-2-oxo-1,2-dihydropyidine-3-carboxamide], the IC50 under setting [4] turned out to be 19.8 nM.

As to `Cc1ccc(C(=O)Nc2ccc(Oc3cc4cnn5c4c(c3-c3cn[nH]c3)CC5)c(F)c2)c(=O)n1-c1ccc(F)cc1` [Example 31, N-(4-((5-(1H-pyrazol-4-yl)-6,7-dihydropyrrolo[3,2,1-hi]-indazol-4-yl)oxy)-3-fluorophenyl)-1-(4-fluorophenyl)-6-methyl-2-oxo-1,2-dihydropyridine-3-carboxamide], under setting [4], the IC50 was found to be 33 nM.
